Test results taken from patent publication US20260176270A1 (Exelixis, Inc., priority 2022, published 2026).
Read-outs that look alike come from different tables or passages of the source.

Key:
[1] = test system: phosphorylation of CDK1 at Thr14 in HCC1806 cells; test: Cell lysate AlphaLISA assay measuring inhibition of phosphorylation of CDK1 Thr14; format: cell-based; conditions: read-out: Cellular IC50
Description: (§1) Biochemical IC50 values were determined via ADP-Glo™ assay. Cellular IC50 values were determined via AlphaLISA assay.
Cell lysate AlphaLISA® assay measuring inhibition of phosphorylation of CDK1 Thr14. Inhibition of phosphorylation of CDK1 at Thr14 was determined using AlphaLISA® SureFire® Ultra™ Kit from Perkin Elmer (ALSU-PCDK1-A10K). HCC1806 cells were seeded at 2K cells per well (50 μl/well) in 384-well plates (Corning 3570) and stored overnight at 37° C. and 5% CO2. The following day, the compounds dissolved in DMSO were introduced to the cells and incubated for 4 hours at 37° C. and 5% CO2. The cells were then washed with PBS using Blue®Washer and 10 μl of lysis buffer containing protease inhibitor was added. The plate was placed on an orbital shaker (at 4° C.) for 30 minutes and stored overnight at −80° C. for complete lysing. The next day, the plates were thawed at room temperature for at least 30 min. Reagents were prepared in a dimmed light setting (<100 lumens). The assay was run by first adding 5 μl of the acceptor mix (reaction buffer 1: reaction buffer 2: activation buffer: acceptor beads 47:47:4:2), covering the plate with foil, shaking for 2 minutes and incubating at RT for 60 minutes. The donor mix (dilution buffer: donor beads 47:3) was then added at 5 μl per well, placed on the shaker for 2 minutes and incubated at RT for 60 minutes before reading the plates on a PHERAstar® plate reader. The results were normalized to DMSO (0% Inhibition) and 3 μM of reference compound.

[2] = target: T1, PKMYT1 (Homo sapiens, UniProt Q99640); test: ADP-Glo PKMYT1 ATP-depletion assay; conditions: 50 nM PKMYT1, 13.3 nM CDK1, read-out: Biochemical IC50
T1 construct: PKMYT1 (93 kD, full length, N-terminal GST tag from Signal Chem); GST (N); purchased Signal Chem
T1 sequence (Q99640 1-499): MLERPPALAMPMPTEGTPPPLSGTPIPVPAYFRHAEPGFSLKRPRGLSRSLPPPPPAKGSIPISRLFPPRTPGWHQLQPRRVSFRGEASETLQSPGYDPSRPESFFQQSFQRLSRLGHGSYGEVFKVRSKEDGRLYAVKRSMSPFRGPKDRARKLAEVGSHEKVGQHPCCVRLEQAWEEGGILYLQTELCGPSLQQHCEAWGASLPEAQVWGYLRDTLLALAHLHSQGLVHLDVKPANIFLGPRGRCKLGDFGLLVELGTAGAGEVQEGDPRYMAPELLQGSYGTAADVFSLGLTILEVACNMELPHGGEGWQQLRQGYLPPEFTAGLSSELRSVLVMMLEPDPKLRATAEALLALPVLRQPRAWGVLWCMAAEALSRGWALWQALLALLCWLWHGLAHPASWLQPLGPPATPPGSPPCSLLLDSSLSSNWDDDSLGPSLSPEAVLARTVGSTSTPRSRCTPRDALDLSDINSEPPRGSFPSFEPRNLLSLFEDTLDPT
Description: as §1
ADP-Glo™ PKMYT1 ATP-depletion assay. The activity of PKMYT1 is measured using a luciferase-luciferin based ATP detection reaction to quantify ATP depletion resulting from kinase-catalyzed phosphoryl transfer to CDK1 or autophosphorylation of PKMYT1. The ADP generated as a byproduct of the reaction is converted to ATP and used to drive a luciferase reaction. Test compounds were dissolved in DMSO and dispensed into Corning 3824 384-well plates prior to the experiment such that the final DMSO concentration was <1%. To the compounds was added 3 μL of PKMYT1 (93 kD, full length, N-terminal GST tag from Signal Chem). The reaction was started by the addition of 2 μL of CDK1 (58 kDa, full length, N-terminal GST tag from Signal Chem) and ATP in assay buffer (50 mM Hepes, 40 mM NaCl, 10 mM MgCl2, 1 mM DTT, 0.1 mg/mL BSA, 2.5 mM MnCl2). Final assay concentrations were 50 nM PKMYT1, 13.3 nM CDK1, and 88 µM ATP. Plates were centrifuged for 1 minute at 1000 RPM and incubated at RT for 120 minutes. After the incubation period, ADP-Glo™ reagent was added and the plates were incubated for another 40 minutes before finally adding the kinase detection reagent. 30 minutes after the addition, plates were placed on a PHERAstar® plate reader and read using the Luminescence Protocol, integration time at 0.5 seconds.

Compound	IC50 ([1]; Homo sapiens, HCC1806, 4 h) [µM]	IC50 [2] [µM]	IC50 ([1]; 4 hours) [µM]
Cc1c(O)cccc1-c1c(N)c(C(N)=O)nc2ccccc12 [Compound 18, 3-Amino-4-(3-hydroxy-2-methylphenyl)quinoline-2-carboxamide]	1 to 5	0.05 to 0.5	–
CC1=C(c2c(N)c(C(N)=O)nc3cccnc23)CCC[C@@H]1O [Compound 310]	≥ 5	≥ 5	–
COc1ccnc2cc(C(N)=O)c(N)c(-c3cccc(O)c3C)c12 [Compound 333]	< 0.05	0.05 to 0.5	–
Cc1c(O)cccc1-c1c(N)c(C(N)=O)cc2ccn(C)c(=O)c12 (atropisomer, axis not shown) [Compound 336]	–	< 0.05	0.05 to 0.5
Cc1ccc(O)cc1-c1c(N)c(C(N)=O)cc2nccnc12 (atropisomer, axis not shown; (P)) [Compound 117, (P)-7-amino-8-(5-hydroxy-2-methylphenyl)quinoxaline-6-carboxamide]	–	1 to 5	≥ 5
Cc1ccc2nc(C(N)=O)c(N)c(-c3cccc(O)c3C)c2c1 (atropisomer, axis not shown) [Compound 149]	–	0.05 to 0.5	–
NC(=O)c1nc2cccnc2c(-c2cccc3[nH]ncc23)c1N [Compound 206]	1 to 5	0.05 to 0.5	–
NC(=O)c1nc2cccnc2c(-c2cccc3occc23)c1N [Compound 250]	≥ 5	≥ 5	–
NC(=O)c1nc2cccnc2c(-c2cncc(Cl)c2Cl)c1N [Compound 258]	0.05 to 0.5	< 0.05	–
Cc1c(O)cccc1-c1c(N)c(C(N)=O)cc2nc(C)c(=O)n(C)c12 (atropisomer, axis not shown) [Compound 171]	–	0.05 to 0.5	1 to 5
Cc1c(O)cccc1-c1c(N)c(C(N)=O)nc2cccc(C#N)c12 (atropisomer, axis not shown) [Compound 242]	–	< 0.05	< 0.05
Cc1ccc(O)c(C)c1-c1c(N)c(C(N)=O)nc2c(C)cccc12 (single isomer, unassigned) [Compound 33]	–	1 to 5	≥ 5
Cc1ncccc1-c1c(N)c(C(N)=O)nc2cccnc12 [Compound 207]	≥ 5	≥ 5	–
Cc1ccc(O)c(C)c1-c1c(N)c(C(N)=O)cc2nc(C)c(C)nc12 (atropisomer, axis not shown) [Compound 141]	–	< 0.05	–
Cc1c(O)cccc1-c1c(N)c(C(N)=O)nc2nccnc12 (atropisomer, axis not shown) [Compound 195]	–	0.5 to 1	–
Cc1ccc2nc(C(N)=O)c(N)c(-c3cccc(O)c3C)c2c1 (atropisomer, axis not shown) [Compound 150]	–	≥ 5	–
Cc1ccc(O)c(C)c1-c1c(N)c(C(N)=O)cc2nc(C)c(C)nc12 (atropisomer, axis not shown) [Compound 140]	–	≥ 5	–
NC(=O)c1cc2nccnc2c(-c2cc(O)ccc2Cl)c1N (atropisomer, axis not shown) [Compound 152]	–	≥ 5	–
Cc1c(O)cccc1-c1c(N)c(C(N)=O)nc2nccnc12 (atropisomer, axis not shown) [Compound 194]	–	< 0.05	–
Cc1ccc(O)c(C)c1-c1cc(C(N)=O)cc2nccnc12 (atropisomer, axis not shown) [Compound 165]	–	≥ 5	–
